These results are taken from patent US20220259536A1, “MICROCHANNEL CELL CULTURE DEVICE AND SYSTEM” (THE CHARLES STARK DRAPER LABORATORY, INC., priority 2021, published 2022).

The subject of this test is Human renal proximal tubule cells. Nature of the test: optical label-free measurement of cell oxygen consumption in multi-well microfluidic tissue culture device. It counts as cell-based. The note with it: human renal proximal tubule cells treated with Oligomycin; static conditions after turning off pumps; FIG. 15B, varying drug concentrations. From the text: An optical luminescence-based oxygen sensing system was integrated with an existing multi-well microfluidic tissue culture device, for label-free oxygen monitoring (FIG. 13). Sensor spots having a diameter of 0.75 mm were cut with a biopsy punch from a sheet of photosensitive film (PyroScience) and bonded with 184 Sylgard silicone adhesive to the center floor of each basal channel. The photosensitive sensor spot was located about 200 μm from the tissue layer on the surface of bottom channel. A FireStingO2 optical oxygen meter (PyroScience) with a 2 m fiber optic cable (external to channel) was used to monitor oxygen in each device. For oxygen measurements, the device was placed in an incubated confocal microscope (Zeiss Inc., Oberkochen, Germany) and the fiber optic was secured below the microscope stage. The stage was programmed to align the fiber optic with each sensor for oxygen monitoring in all 96 tissue modeling environments. A 2-point calibration of the FireStingO2 system was performed using devices filled with air saturated PBS and a 0% oxygen solution (30 g/L sodium sulfite in water). […] Tissue oxygen consumption was measured for the human renal proximal tubule cells by cycling the pumps carrying oxygen rich fluid on and off (FIG. 14). As shown in the graph of FIG. 14, under static conditions, cell oxygen consumption was measured immediately upon turning off fluid pumps.

Consider `CC[C@H]1/C=C/C=C/C[C@@H](C)[C@H](O)[C@@](C)(O)C(=O)[C@@H](C)[C@H](O)[C@@H](C)C(=O)[C@@H](C)[C@H](O)[C@@H](C)/C=C/C(=O)O[C@@H]2[C@H](C)[C@H](CC1)O[C@]1(CC[C@H](C)[C@H](C[C@@H](C)O)O1)[C@H]2C` [Oligomycin], for which the “cell oxygen consumption rate” value is “significant decrease”.
